Reference: the supplement of paper PMC10307832

How the values were obtained:
Experiment in all cases: relative viability (nuclei count vs DMSO), 5 days (fraction); higher = more cells survive
Masitinib + Pemetrexed = compound: Cc1ccc(NC(=O)c2ccc(CN3CCN(C)CC3)cc2)cc1Nc1nc(-c2cccnc2)cs1 [Masitinib] + Nc1nc2[nH]cc(CCc3ccc(C(=O)N[C@@H](CCC(=O)O)C(=O)O)cc3)c2c(=O)[nH]1 [Pemetrexed] (partner 0.2 µM)
Outline: (§1)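 A single step with final 0.05% Triton X-100, 1% formaldehyde and 1 ug/ml Hoechst fixed the cells and stained nuclei 5 days after treatment. Lung cancer cell lines in 1536-well plates had been treated by pin tool the day after seeding with one drug alone or a fixed anchor-drug dose plus five library-drug doses (not always all listed) in √10 steps, and nuclei were counted on 4× images. Relative viability is the ratio of nuclei in treated wells to nuclei in vehicle wells, taken as the median of duplicate plates.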

Masitinib + Navitoclax = compound: Cc1ccc(NC(=O)c2ccc(CN3CCN(C)CC3)cc2)cc1Nc1nc(-c2cccnc2)cs1 [Masitinib] + CC1(C)CCC(c2ccc(Cl)cc2)=C(CN2CCN(c3ccc(C(=O)NS(=O)(=O)c4ccc(N[C@H](CCN5CCOCC5)CSc5ccccc5)c(S(=O)(=O)C(F)(F)F)c4)cc3)CC2)C1 [Navitoclax] (partner 0.5 µM)
Outline: as §1

[1] = compound: CC1=CC(=CC=C1)NC2=NC(=CS2)C3=CC=NC=C3 + Cc1cc(Nc2cc(N3CCN(C)CC3)nc(Sc3ccc(NC(=O)C4CC4)cc3)n2)n[nH]1 [Tozasertib] (partner 0.1 µM)
Outline: as §1

Masitinib + Crizotinib = compound: Cc1ccc(NC(=O)c2ccc(CN3CCN(C)CC3)cc2)cc1Nc1nc(-c2cccnc2)cs1 [Masitinib] + C[C@@H](Oc1cc(-c2cnn(C3CCNCC3)c2)cnc1N)c1c(Cl)ccc(F)c1Cl [Crizotinib] (partner 1 µM)
Outline: as §1

Row | Cell Line | relative viability (Masitinib + Pemetrexed; first compound 0.01 µM) | relative viability (Masitinib + Pemetrexed; first compound 0.03162 µM) | relative viability (Masitinib + Pemetrexed; first compound 0.1 µM) | relative viability (Masitinib + Pemetrexed; first compound 0.3162 µM) | relative viability (Masitinib + Pemetrexed; first compound 1 µM) | relative viability (Masitinib + Navitoclax; first compound 0.01 µM) | relative viability (Masitinib + Navitoclax; first compound 0.03162 µM) | relative viability (Masitinib + Navitoclax; first compound 0.1 µM) | relative viability (Masitinib + Navitoclax; first compound 0.3162 µM) | relative viability (Masitinib + Navitoclax; first compound 1 µM) | relative viability ([1]; first compound 0.08 µM) | relative viability ([1]; first compound 0.253 µM) | relative viability ([1]; first compound 2.53 µM) | relative viability ([1]; first compound 8 µM) | relative viability (Masitinib + Crizotinib; first compound 0.01 µM) | relative viability (Masitinib + Crizotinib; first compound 0.03162 µM) | relative viability (Masitinib + Crizotinib; first compound 0.1 µM) | relative viability (Masitinib + Crizotinib; first compound 0.3162 µM) | relative viability (Masitinib + Crizotinib; first compound 1 µM) | relative viability ([1]; first compound 0.8 µM)
1 | SK-LU-1 | 0.982 | 1 | 1.06 | 0.919 | 1.03 | 0.927 | 1.05 | 1.04 | 1 | 0.869 | 0.301 | 0.293 | 0.32 | 0.302 | 0.832 | 0.884 | 0.983 | 1.01 | 0.756 | –
2 | NCI-H2347 | 0.425 | 0.406 | 0.385 | 0.446 | 0.417 | 0.709 | 0.764 | 0.79 | 0.861 | 0.764 | 0.51 | 0.605 | 0.489 | 0.489 | 0.731 | 0.759 | 0.891 | 0.707 | 0.688 | –
3 | HCC-366 | – | 0.174 | 0.148 | 0.137 | 0.146 | 1.04 | 1.03 | 1.2 | 1.09 | 1 | 0.126 | 0.0811 | 0.0599 | 0.0456 | 0.467 | 0.517 | 0.721 | 0.334 | 0.444 | 0.081
4 | EMC-BAC-2 | 0.435 | 0.453 | 0.447 | 0.429 | 0.328 | 1.08 | 0.962 | 1.16 | 1.37 | 1.45 | 0.261 | 0.286 | 0.285 | 0.323 | 0.655 | 0.648 | 0.845 | 0.705 | 0.82 | 0.287
5 | NCI-H3122 | 0.175 | 0.196 | 0.193 | 0.201 | 0.191 | 1.03 | 1.04 | 1.04 | 1.09 | 1.04 | 0.386 | 0.455 | 0.384 | 0.457 | 0.26 | 0.252 | 0.306 | 0.217 | 0.253 | 0.47
6 | SK-MES-1 | 0.844 | 0.924 | 0.873 | 0.877 | 0.967 | 1.29 | 1.23 | 1.24 | 1.17 | 0.99 | 0.708 | 0.679 | 0.737 | 0.718 | 0.912 | 1.01 | 1.02 | 1.02 | 0.983 | 0.722
7 | NCI-H2170 | 0.238 | 0.264 | 0.263 | 0.284 | 0.263 | 0.683 | 0.486 | 0.546 | 0.577 | 0.559 | 0.729 | 0.71 | 0.793 | 0.628 | 1.38 | 1.18 | 1.37 | 1.3 | 1.11 | 0.663
8 | EPLC-272H | 0.32 | – | 0.348 | 0.399 | 0.249 | 1.08 | 1.13 | 1.08 | 1.23 | 1.06 | 0.294 | 0.206 | 0.313 | 0.51 | 0.881 | 0.81 | 0.803 | 0.842 | 0.871 | 0.248
9 | NCI-H1975 | 0.305 | 0.3 | 0.287 | 0.291 | 0.303 | 1.15 | 1.09 | 1.14 | 0.92 | 1.01 | 0.693 | 0.654 | 0.181 | 0.179 | 0.948 | 0.88 | 1.06 | 0.872 | 0.926 | 0.281
10 | NCI-H647 | 0.166 | 0.178 | 0.174 | 0.185 | 0.164 | 1.14 | 1.1 | 1.08 | 1.23 | 1.09 | 0.266 | 0.29 | 0.316 | 0.222 | 1.06 | 0.987 | 1.1 | 1.21 | 1.21 | 0.286
11 | NCI-H441 | 0.261 | 0.273 | 0.244 | 0.261 | 0.256 | 0.782 | 0.78 | 0.522 | 0.749 | 0.602 | 0.617 | 0.536 | 0.492 | 0.484 | 0.741 | 0.804 | 0.919 | 0.665 | 0.696 | 0.527
12 | NCI-H1355 | 0.9 | 0.92 | 1.1 | 0.853 | 1.08 | 0.956 | 0.842 | 1 | 0.754 | 0.946 | 0.518 | 0.516 | 0.335 | 0.281 | 1.06 | 1.1 | 1.07 | 0.746 | 1.01 | 0.428
13 | NCI-H23 | 0.795 | 0.607 | 0.699 | 0.641 | 0.626 | 0.879 | 0.789 | 0.966 | 0.706 | 0.872 | 0.404 | 0.324 | 0.253 | 0.418 | 0.524 | 0.423 | 0.597 | 0.463 | 0.465 | 0.296
14 | NCI-H2087 | 0.642 | 0.666 | 0.66 | 0.555 | 0.703 | 0.966 | 1.02 | 1.1 | 1.08 | 0.963 | 0.197 | 0.229 | 0.19 | 0.216 | 0.669 | 0.913 | 0.899 | 0.891 | 0.951 | 0.245
15 | NCI-H838 | 0.267 | 0.256 | 0.254 | 0.247 | 0.244 | 1.06 | 0.936 | 1.14 | 1.01 | 1.11 | 0.229 | 0.227 | 0.234 | 0.225 | 0.95 | 0.71 | 0.828 | 0.651 | 0.818 | 0.242
16 | NCI-H460 | 0.0557 | 0.0629 | 0.0594 | 0.0647 | 0.0579 | 1.22 | 0.834 | 1.27 | 1.33 | 1.26 | 0.486 | 0.337 | 0.0737 | 0.113 | 0.748 | 0.763 | 1.03 | 0.647 | 0.911 | 0.395
